Measurements as given in patent US9221746B2, “Homo- and hetero-polyamino-acid derivatives of fullerene C60, method for producing same, and pharmaceutical compositions based on said derivatives” (priority 2011, dated 2015).
Like-named read-outs stand apart in the source and are kept apart here. Marks after values point to notes of the source that are not given here.

Assays:
L1210 leukemia = type: in vivo, mice; settings: for ILT, %: increase in lifetime compared to the control; for Average body weight gain, M ± m / Percent inhibition relative to control / Average weight gain, M ± m: ascite development
Procedure: (§1) These studies were carried out at the Institute for Toxicology, St. Petersburg, 2006, according to “Guidelines for the Study of Antitumor Activity of Pharmacological Agents” (“Manual on Experimental (Preclinical) Study of New Pharmacological Agents,” Ministry of Public Health of the Russian Federation, Remedium, Moscow, 2000, pp. 319-325).
(§2) The L1210 leukemia, breast adenocarcinoma Ca-755, and Lewis carcinoma (3LL) tumor cell strain were purchased from the Petrov Research Institute for Oncology, the Ministry of Public Health of the Russian Federation (St. Petersburg).
DBA/2 line mice with transplanted L1210 leukemia cells. Mouse ages: 6 to 8 weeks; body weights: 19 to 25 g.
(§3) The antitumor effect was ascertained through the following parameters: • ascite accumulation as animal body weight gain; • the lifetime of animals; and • tumor growth. The larger dimension of the tumor (length) and the smaller dimension normal thereto (width) were measured. The tumor volume was calculated, and the inhibition of tumor growth was calculated by a formula. The ascertainment criterion was the day when each individual tumor reached a volume of 500 mm^3.
During the experiment, the animals were weighed daily with the goal of evaluating ascite accumulation and studying the agents compared on this process.

Lewis carcinoma (3LL) = test: Transplantable Lewis carcinoma (3LL) in mice; type: in vivo
Procedure: as §1, §2
C 57 BL/6J line male mice with transplanted 3LL cells. Mouse ages: 6 to 8 weeks; body weights: 18 to 24 g.
as §3

Substance: Fullerene Poly(Aminocaproic Acid) of Formula C60(H3){NH(CH2)5COO—}3{NH3^+(CH2)5COOH}3 [Agent No. 1]
- ALT in days, M ± m (L1210 leukemia; 100 mg/kg): 10.7 ± 37 days
- ILT, % (L1210 leukemia; 100 mg/kg): 78.33%
- ALT in days, M ± m (L1210 leukemia; 100 mg/kg, listed as agent): 10.7 ± 0.37 days
- average lifetime (L1210 leukemia; 200 mg/kg): 10.60 ± 0.37 days
- percent increase in lifetime compared to the control (L1210 leukemia; 200 mg/kg): 76.67%
- ALT in days, M ± m (L1210 leukemia; 250 mg/kg): 10.60 ± 37 days
- factor by which average body weight gain is lower at 250 mg/kg than at 100 mg/kg (L1210 leukemia; 250 mg/kg versus 100 mg/kg): 1.5
- ILT, % (L1210 leukemia; 250 mg/kg): 76.67%
- Average body weight gain, M ± m (L1210 leukemia; 100 mg/kg, day 1): 0.3 ± 0.2
- Average body weight gain, M ± m (L1210 leukemia; 100 mg/kg, day 2): 0.8 ± 0.4
- Average body weight gain, M ± m (L1210 leukemia; 100 mg/kg, day 3): 2.5 ± 0.5
- Percent inhibition relative to control (L1210 leukemia; 100 mg/kg, day 3): 50.0%*
- Average body weight gain, M ± m (L1210 leukemia; 100 mg/kg, day 4): 4.2 ± 1.0
- Percent inhibition relative to control (L1210 leukemia; 100 mg/kg, day 4): 63.2%*
- Average body weight gain, M ± m (L1210 leukemia; 100 mg/kg, day 5): 8.4 ± 1.2
- Percent inhibition relative to control (L1210 leukemia; 100 mg/kg, day 5): 48.5%*
- Average body weight gain, M ± m (L1210 leukemia; 100 mg/kg, day 6): 12.1 ± 2.1
- Percent inhibition relative to control (L1210 leukemia; 100 mg/kg, day 6): 42.9%*
- Average body weight gain, M ± m (L1210 leukemia; 100 mg/kg, day 7): 14.2 ± 2.2
- Percent inhibition relative to control (L1210 leukemia; 100 mg/kg, day 7): 46.0%*
- Average weight gain, M ± m (L1210 leukemia; 250 mg/kg, day 1): 0.3 ± 0.1
- Average weight gain, M ± m (L1210 leukemia; 250 mg/kg, day 2): 0.5 ± 0.3
- Average weight gain, M ± m (L1210 leukemia; 250 mg/kg, day 3): 1.1 ± 0.4
- Percent inhibition relative to control (L1210 leukemia; 250 mg/kg, day 3): 78.0%*
- Average weight gain, M ± m (L1210 leukemia; 250 mg/kg, day 4): 2.8 ± 0.9
- Percent inhibition relative to control (L1210 leukemia; 250 mg/kg, day 4): 75.4%*
- Average weight gain, M ± m (L1210 leukemia; 250 mg/kg, day 5): 4.7 ± 1.2
- Percent inhibition relative to control (L1210 leukemia; 250 mg/kg, day 5): 71.2%*
- Average weight gain, M ± m (L1210 leukemia; 250 mg/kg, day 6): 8.4 ± 1.6
- Percent inhibition relative to control (L1210 leukemia; 250 mg/kg, day 6): 60.4%*
- Average weight gain, M ± m (L1210 leukemia; 250 mg/kg, day 7): 10.0 ± 1.3
- Percent inhibition relative to control (L1210 leukemia; 250 mg/kg, day 7): 62.0%*
- intoxication signatures (L1210 leukemia; mouse, in vivo): No intoxication signatures were detected
- Day when the tumor reaches a volume of 500 mm³ (Lewis carcinoma (3LL); 100 mg/kg): 21.3 ± 1.21 days
- Lifetime, M ± m (Lewis carcinoma (3LL); 100 mg/kg): 55.92 ± 0.98 days
- day post transplantation when the first tumors were observed (Lewis carcinoma (3LL); 100 mg/kg): 7 days
- Number of large (>3 mm) metastases in lungs, M ± m (Lewis carcinoma (3LL); 100 mg/kg (n = 12)): 5.8 ± 1.91
- Number of metastases in lungs, M ± m (Lewis carcinoma (3LL); 100 mg/kg (n = 12)): 53.5 ± 11.23
- Weight of lungs, mg M + m (Lewis carcinoma (3LL); 100 mg/kg (n = 12)): 491.9 ± 63.72 mg
- percent inhibition (average tumor volume) compared to the control group (Lewis carcinoma (3LL); 100 mg/kg, day 10): 71.77%
- percent inhibition (average tumor volume) compared to the control group (Lewis carcinoma (3LL); 100 mg/kg, day 17): 58.5%
- Day when the tumor reaches a volume of 500 mm³ (Lewis carcinoma (3LL); 100 mg/kg, versus control): 27.3%*
- Lifetime, Percent increase (Lewis carcinoma (3LL); 100 mg/kg, versus control): 70.42%*
- Day when the tumor reaches a volume of 500 mm³ (Lewis carcinoma (3LL); 250 mg/kg): 20.5 ± 1.20 days
- Lifetime, M ± m (Lewis carcinoma (3LL); 250 mg/kg): 56.38 ± 0.68 days
- day post transplantation when the first tumors appeared (Lewis carcinoma (3LL); 250 mg/kg): 8 days
- Number of large (>3 mm) metastases in lungs, M ± m (Lewis carcinoma (3LL); 250 mg/kg (n = 13)): 5.7 ± 1.54
- Number of metastases in lungs, M ± m (Lewis carcinoma (3LL); 250 mg/kg (n = 13)): 55.8 ± 11.60
- Weight of lungs, mg M + m (Lewis carcinoma (3LL); 250 mg/kg (n = 13)): 505.4 ± 68.82 mg
- percent inhibition (average tumor volume) compared to the control group (Lewis carcinoma (3LL); 250 mg/kg, day 10): 84.37%
- percent inhibition (average tumor volume) compared to the control group (Lewis carcinoma (3LL); 250 mg/kg, day 17): 54.2%
- Day when the tumor reaches a volume of 500 mm³ (Lewis carcinoma (3LL); 250 mg/kg, versus control): 22.9%*
- Lifetime, Percent increase (Lewis carcinoma (3LL); 250 mg/kg, versus control): 71.85%*
- increase of the average lifetime against the control group (Lewis carcinoma (3LL); both doses): approximately 70%
